Test results from patent US6518423B1, “Benzopiperidine derivatives” (Eisai Co., Ltd., priority 1996, dated 2003).

Compared with CNS(=O)(=O)CCC1CCN(Cc2ccc3c(c2)Nc2nccnc2S3)CC1, CN(C)S(=O)(=O)CCC1CCN(Cc2ccc3c(c2)Nc2nccnc2S3)CC1 is lower in melting point: 195 to 198 °C for the first, 188 to 190 °C for the second.

First: OCc1nccn1Cc1ccc2c(c1)Nc1nccnc1S2
Second: c1cnn(Cc2ccc3c(c2)Nc2nccnc2S3)c1
The melting point of the first is higher: 247 to 250 °C for the first, 211 to 212 °C for the second.

Compared with O=C(O)C1CCN(S(=O)(=O)NC2CCN(Cc3ccc4c(c3)Nc3nccnc3S4)CC2)CC1, O=S(=O)(NCCO)NC1CCN(Cc2ccc3c(c2)Nc2nccnc2S3)CC1 is higher in melting point: 54 to 55 °C for the first, 164 to 166 °C for the second.

Compared with CC1C[C@@H](C)C2CN(Cc3ccc4c(c3)Nc3nccnc3S4)CC1C21CC(CC(=O)O)C1 (stereo partly drawn), O=C(O)CC1CC2(C1)C1CCCC2CN(Cc2ccc3c(c2)Nc2nccnc2S3)C1 (stereo not drawn) is lower in melting point: 205 to 206 °C for the first, 199 to 201 °C for the second.

First: CN(C)/C=N/Cc1ccc2c(c1)Nc1nccnc1S2
Second: CN(C=NC#N)Cc1ccc2c(c1)Nc1nccnc1S2
The melting point of the first is higher: 218 to 219 °C for the first, 197 to 198 °C for the second.

First: CC(c1cccnc1)c1ccc2c(c1)Nc1nccnc1S2 (stereo not drawn)
Second: FC(c1cccnc1)c1ccc2c(c1)Nc1nccnc1S2 (stereo not drawn)
The melting point of the first is higher: 180 to 181 °C for the first, 157 to 159 °C for the second.

Compared with C/C(O)=C(\C#N)C(=O)Nc1ccc(-c2cn(Cc3ccc4c(c3)Nc3nccnc3S4)cn2)cc1, O=C(O)CSc1ccc(NCc2ccc3c(c2)Nc2nccnc2S3)cn1 is lower in melting point: 259 to 261 °C for the first, 114 to 116 °C for the second.

First: CNS(=O)(=O)NC1CCN(Cc2ccc3c(c2)Nc2nccnc2O3)CC1
Second: NC(=O)C1CCN(Cc2ccc3c(c2)Nc2nccnc2O3)CC1
The melting point of the first is lower: 219 to 222 °C for the first, 287 to 288 °C for the second.

Compared with OC1C2CCCC1CN(Cc1ccc3c(c1)Nc1nccnc1S3)C2 (stereo not drawn) [Example 126], CC(C)(O)CC1C2CCCC1CN(Cc1ccc3c(c1)Nc1nccnc1S3)C2 (stereo not drawn) is lower in melting point: 215 to 219 °C for the first, 182 to 185 °C for the second.

First: CN1C2CCC1CC(NC(=O)CC1CC3(CCN(Cc4ccc5c(c4)Nc4nccnc4S5)CC3)C1)C2 (stereo not drawn)
Second: CC(C(=O)O)C1CC2(CCN(Cc3ccc4c(c3)Nc3nccnc3S4)CC2)C1 (stereo not drawn)
The melting point of the first is higher: 181 to 184 °C for the first, 169 to 172 °C for the second.

Compared with COc1ccc(C(O)c2ccc3c(c2)Nc2nccnc2S3)cc1 (stereo not drawn), CCc1ccc(C(O)c2ccc3c(c2)Nc2nccnc2S3)cn1 (stereo not drawn) is higher in melting point: 84 to 86 °C for the first, 161 to 163 °C for the second.

First: O=C(Nc1ccccc1)c1ccc2c(c1)Nc1nccnc1S2
Second: c1ccc(NCc2ccc3c(c2)Nc2nccnc2S3)cc1
The melting point of the first is higher: 281 to 282 °C for the first, 183 to 186 °C for the second.

Compared with OC(c1ccc2c(c1)Nc1nccnc1S2)c1ccccc1CN1CCCCC1 (stereo not drawn), c1cnc2c(n1)Nc1cc(CN3CCCCCCC3)ccc1S2 is lower in melting point: 219 to 221 °C for the first, 133 to 135 °C for the second.

Compared with O=C(Nc1nccs1)c1ccc2c(c1)Nc1nccnc1S2, CCNC(=O)c1ccc2c(c1)Nc1nccnc1S2 is lower in melting point: 320 to 322 °C for the first, 274 to 275 °C for the second.

First: Nc1ncnc2c1ncn2Cc1ccc2c(c1)Nc1nccnc1S2
Second: CCc1ncnc2c1ncn2Cc1ccc2c(c1)Nc1nccnc1S2
The melting point of the first is higher: 290 °C for the first, 215 to 217 °C for the second.

First: O=C(O)CC1CCN(Cc2ccc3c(c2)Nc2nccnc2S3)CC1
Second: O=C(O)COCC1CCN(Cc2ccc3c(c2)Nc2nccnc2S3)CC1
The melting point of the first is lower: 142 to 146 °C for the first, 146 to 148 °C for the second.

O=C(O)CSC1CCN(Cc2ccc3c(c2)Nc2nccnc2S3)CC1 and OCCC1CCN(Cc2ccc3c(c2)Nc2nccnc2S3)CC1 fall in the same range of melting point: 148 to 152 °C for the first, 148 to 152 °C for the second.

First: N#CN=C(Cc1ccc2c(c1)Nc1nccnc1S2)NCCCn1ccnc1
Second: CCOC(=O)CCCNC(Cc1ccc2c(c1)Nc1nccnc1S2)=NC#N
The melting point of the first is higher: 205 to 208 °C for the first, 154 to 155 °C for the second.

Compared with CC(CCC1CCN(Cc2ccc3c(c2)Nc2nccnc2O3)CC1)C(=O)O (stereo not drawn), O=C(O)C1CCN(Cc2ccc3c(c2)Nc2nccnc2O3)CC1 is higher in melting point: 238 to 240 °C for the first, 242 to 244 °C for the second.

First: O=C(O)c1ccc(CC2CCN(Cc3ccc4c(c3)Nc3nccnc3S4)CC2)cc1
Second: CC(CCC1CCN(CCCc2ccc3c(c2)Nc2nccnc2S3)CC1)C(=O)O (stereo not drawn)
The melting point of the first is lower: 158 to 161 °C for the first, 235 to 238 °C for the second.

First: OCc1cc(NCc2ccc3c(c2)Nc2nccnc2S3)ccn1
Second: OCCc1ccc(NCc2ccc3c(c2)Nc2nccnc2S3)cn1
The melting point of the first is higher: 156 to 160 °C for the first, 138 to 142 °C for the second.

Compared with CC1CC(C)CN(c2ncnc3c2ncn3Cc2ccc3c(c2)Nc2nccnc2S3)C1 (stereo not drawn), O=C(O)C1CCN(c2ncnc3c2ncn3Cc2ccc3c(c2)Nc2nccnc2S3)CC1 is higher in melting point: 237 to 238 °C for the first, 238 to 240 °C for the second.

First: CC(=O)c1ncnc2ncn(Cc3ccc4c(c3)Nc3nccnc3S4)c12
Second: CC(C)(O)c1ncnc2ncn(Cc3ccc4c(c3)Nc3nccnc3S4)c12
The melting point of the first is lower: 266 to 268 °C for the first, 268 to 271 °C for the second.

First: N#Cc1ccc2c(c1)Nc1nccnc1S2
Second: N#CN=CNCc1ccc2c(c1)Nc1nccnc1S2
The melting point of the first is higher: 263 to 264 °C for the first, 224 to 226 °C for the second.

First: CC(=O)N(Cc1ccc2c(c1)Nc1nccnc1S2)c1cccnc1
Second: c1ccc(NCc2ccc3c(c2)Nc2nccnc2S3)nc1
The melting point of the first is higher: 212 to 214 °C for the first, 208 to 212 °C for the second.

Compared with CNS(=O)(=O)CCN(C)Cc1ccc2c(c1)Nc1nccnc1S2, CN(CCCCCC(=O)O)Cc1ccc2c(c1)Nc1nccnc1S2 is higher in melting point: 143 to 146 °C for the first, 191 to 193 °C for the second.

Compared with O=S(=O)(NCCc1cn(Cc2ccc3c(c2)Nc2nccnc2S3)cn1)c1ccccc1, OC(c1ccccn1)c1nccn1Cc1ccc2c(c1)Nc1nccnc1S2 (stereo not drawn) is lower in melting point: 127 to 130 °C for the first, 95 to 98 °C for the second.

First: CC1CCCC(C)N1Cc1ccc2c(c1)Nc1nccnc1S2 (stereo not drawn)
Second: c1cnc2c(n1)Nc1cc(CN3CCC3)ccc1S2
The melting point of the first is higher: 168 to 172 °C for the first, 158 to 161 °C for the second.

First: CNS(=O)(=O)N1CCN(Cc2ccc3c(c2)Nc2nccnc2S3)CC1
Second: CON=C1CCN(Cc2ccc3c(c2)Nc2nccnc2S3)CC1
The melting point of the first is higher: 208 to 210 °C for the first, 142 to 143 °C for the second.

First: COCN1c2ccc(OC)cc2Nc2nccnc21
Second: CN1c2ccc(C#N)cc2Nc2nccnc21
The melting point of the first is lower: 244 to 251 °C for the first, 274 to 275 °C for the second.

First: CC(C)Oc1ccc(NCc2ccc3c(c2)Nc2nccnc2S3)cn1
Second: COc1ccc(NCc2ccc3c(c2)Nc2nccnc2S3)cn1
The melting point of the first is lower: 145 to 148 °C for the first, 168 to 172 °C for the second.

First: Cc1cc(NCc2ccc3c(c2)Nc2nccnc2S3)cc(C)n1
Second: Clc1ccc(NCc2ccc3c(c2)Nc2nccnc2S3)nc1
The melting point of the first is higher: 230 to 235 °C for the first, 200 to 203 °C for the second.

First: CCCCC#CC(O)c1ccc2c(c1)Nc1nccnc1S2 (stereo not drawn)
Second: CC(=NC#N)NCc1ccc2c(c1)Nc1nccnc1S2
The melting point of the first is lower: 116 to 118 °C for the first, 275 to 277 °C for the second.

First: c1cc(CCc2ccc3c(c2)Nc2nccnc2S3)ccn1
Second: OCCSc1ccc(NCc2ccc3c(c2)Nc2nccnc2S3)cn1
The melting point of the first is higher: 179 to 183 °C for the first, 138 to 142 °C for the second.

Compared with CCOC(=O)CCCCSc1ncnc2ncn(Cc3ccc4c(c3)Nc3nccnc3S4)c12, CCOC(=O)CCCCCSc1ncnc2c1ncn2Cc1ccc2c(c1)Nc1nccnc1S2 is lower in melting point: 175 to 178 °C for the first, 78 to 79 °C for the second.

First: COC(=O)c1ccc(NCc2ccc3c(c2)Nc2nccnc2S3)nc1
Second: CS(=O)(=O)NC(=O)Cc1ccc2c(c1)Nc1nccnc1S2
The melting point of the first is lower: 140 to 148 °C for the first, 236 to 238 °C for the second.

First: CN(C)c1ncnc2c1nc(C(F)(F)F)n2Cc1ccc2c(c1)Nc1nccnc1S2
Second: CN(C)c1ncnc2ncn(Cc3ccc4c(c3)Nc3nccnc3S4)c12
The melting point of the first is lower: 231 to 233 °C for the first, 265 to 268 °C for the second.

First: CC(C)(C)OC(=O)CN1c2ccccc2Nc2nccnc21
Second: OCCCCN1c2ccccc2Nc2nccnc21
The melting point of the first is higher: 199 to 201 °C for the first, 138 to 139 °C for the second.

Compared with CC(CCC1CCN(Cc2ccc3c(c2)Nc2ccncc2S3)CC1)C(=O)O (stereo not drawn), CC(CCC1CCN(CC(O)c2ccc3c(c2)Nc2nccnc2S3)CC1)C(=O)O (stereo not drawn) is higher in melting point: 210 to 215 °C for the first, 239 to 242 °C for the second.

First: OC(c1ccc2c(c1)Nc1nccnc1S2)c1ncccn1 (stereo not drawn)
Second: O=C1C=CN(Cc2ccc3c(c2)Nc2nccnc2S3)CC1
The melting point of the first is lower: 105 to 107 °C for the first, 233 to 235 °C for the second.

First: c1cn(Cc2ccc3c(c2)Nc2nccnc2O3)cn1
Second: O=C(O)C1=CCCN(Cc2ccc3c(c2)Nc2nccnc2S3)C1
The melting point of the first is higher: 252 to 255 °C for the first, 178 to 180 °C for the second.

Compared with O=C(O)/C=C1/CCCN(Cc2ccc3c(c2)Nc2nccnc2S3)C1, O=C(O)/C=C1\CCCN(Cc2ccc3c(c2)Nc2nccnc2S3)C1 is lower in melting point: 216 to 220 °C for the first, 200 to 203 °C for the second.

Compared with CC(C)(CO)C1C2CCCC1CN(Cc1ccc3c(c1)Nc1nccnc1S3)C2 (stereo not drawn), c1cnc2c(n1)Nc1cc(CNCC3CCNCC3)ccc1S2 is lower in melting point: 181 to 183 °C for the first, 173 to 175 °C for the second.

Compared with CN1c2ccc(C(O)c3nccn3S(=O)(=O)N(C)C)cc2Nc2nccnc21 (stereo not drawn), CN(C)S(=O)(=O)NC1CCN(C(=N)Cc2ccc3c(c2)Nc2nccnc2S3)CC1.Cl is higher in melting point: 185 to 190 °C for the first, 215 to 218 °C for the second.

Compared with COCN1c2cc(CCl)ccc2Sc2nccnc21, O=C(O)C=C1CC2(CCN(Cc3ccc4c(c3)Nc3nccnc3S4)CC2)C1 is higher in melting point: 125 to 126 °C for the first, 238 to 241 °C for the second.

In the case of CCOC(=O)/C=C/c1cccc(C(O)c2ccc3c(c2)Nc2nccnc2S3)n1 (stereo not drawn), the melting point is reported as 160 to 170 °C (dec.).
For O=C(O)C(F)C1CCN(Cc2ccc3c(c2)Nc2nccnc2S3)CC1 (stereo not drawn), the melting point was 163 °C (dec.).
With Nc1c(N2CCN(Cc3ccc4c(c3)Nc3nccnc3S4)CC2)c(=O)c1=O the melting point was 285 to 288 °C (dec.).
For OCC#Cc1ncnc2c1ncn2Cc1ccc2c(c1)Nc1nccnc1S2, the melting point was 152 to 154 °C (dec.).
Compound CN1c2ccc(C#CC(=O)O)cc2Nc2nccnc21 has a melting point greater than 275 °C.
In the case of C/C(=C\c1ncn(Cc2ccc3c(c2)Nc2nccnc2S3)c1C)C(N)=O, the melting point is reported as 280 °C (dec.).
With CN/C(=C\[N+](=O)[O-])NCc1ccc2c(c1)Nc1nccnc1S2 the melting point was > 265 °C (dec.).
For Cc1ncn(Cc2ccc3c(c2)Nc2nccnc2S3)c1C(=O)O, the melting point was 235 °C (dec.).
In the case of Cl.c1ccc(CN2CCCN=C2Cc2ccc3c(c2)Nc2nccnc2S3)cc1, the melting point is reported as 153 to 155 °C (dec.).
For CC/C(=C\c1ncn(Cc2ccc3c(c2)Nc2nccnc2S3)c1C)C(=O)O, the melting point was > 288 °C (dec.).
Compound CN1c2ccc(C(O)c3cccs3)cc2Nc2nccnc21 (stereo not drawn) has a melting point greater than 275 °C.
For CCCCC(Sc1ncnc2c1ncn2Cc1ccc2c(c1)Nc1nccnc1S2)C(=O)O (stereo not drawn), the melting point was 110 to 120 °C (dec.).
